These results are taken from patent publication US7157430B2, “(Substituted)acyl dipeptidyl inhibitors of the ICE/CED-3 family of cysteine proteases” (Idun Pharmaceuticals, Inc., priority 1998, dated 2007).

Holding throughout (format): biochemical
Details in all cases: continuous assay 60 min, reaction initiated by adding enzyme

In one experiment the target is T1, CPP32 (Homo sapiens, UniProt P42574).
T1 sequence (P42574 29-175 limits assumed): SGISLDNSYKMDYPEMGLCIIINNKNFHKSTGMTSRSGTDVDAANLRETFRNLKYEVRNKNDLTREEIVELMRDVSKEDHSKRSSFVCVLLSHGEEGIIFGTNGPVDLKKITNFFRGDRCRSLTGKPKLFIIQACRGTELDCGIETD
T1 sequence (P42574 176-277 limits assumed): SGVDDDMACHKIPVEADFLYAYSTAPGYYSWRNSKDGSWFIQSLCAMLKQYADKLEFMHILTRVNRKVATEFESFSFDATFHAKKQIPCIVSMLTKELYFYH
Kind of experiment: Dissociation constant Ki and irreversible rate constant k3 for irreversible inhibitors, CPP32.

The next experiment addresses T2, MCH-2 (Homo sapiens, UniProt P55212).
T2 sequence (P55212 24-179 limits assumed): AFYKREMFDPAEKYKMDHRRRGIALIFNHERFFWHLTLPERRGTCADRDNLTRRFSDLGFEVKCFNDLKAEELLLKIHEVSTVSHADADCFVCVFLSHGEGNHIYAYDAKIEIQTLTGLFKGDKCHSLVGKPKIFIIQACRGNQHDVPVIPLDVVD
T2 sequence (P55212 194-293 limits assumed): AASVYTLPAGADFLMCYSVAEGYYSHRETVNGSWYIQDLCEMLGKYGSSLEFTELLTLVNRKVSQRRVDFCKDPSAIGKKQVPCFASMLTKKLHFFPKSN
Put plainly: Dissociation constant Ki and irreversible rate constant k3 for irreversible inhibitors, Mch2.

The target in the next experiment is MCH-5 (Homo sapiens, UniProt Q14790). Put plainly: Dissociation constant Ki and irreversible rate constant k3 for irreversible inhibitors, Mch5.
A further experiment has as its target T3, mICE (Mus musculus, UniProt P29452).
T3 sequence (P29452 123-296 limits assumed): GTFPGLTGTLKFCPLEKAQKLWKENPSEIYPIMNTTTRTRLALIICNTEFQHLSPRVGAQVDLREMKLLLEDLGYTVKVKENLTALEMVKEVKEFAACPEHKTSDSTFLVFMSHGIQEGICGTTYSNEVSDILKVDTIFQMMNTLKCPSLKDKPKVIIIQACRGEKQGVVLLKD
T3 sequence (P29452 315-402 limits assumed): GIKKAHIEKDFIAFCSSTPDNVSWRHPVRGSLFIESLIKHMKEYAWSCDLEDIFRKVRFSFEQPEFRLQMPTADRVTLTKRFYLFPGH
Kind of experiment: Dissociation constant Ki and irreversible rate constant k3 for irreversible inhibitors, ICE.

The structures appear in SMILES notation.

Chain of MCH-5 (Q14790 217-374 limits assumed, species assumed): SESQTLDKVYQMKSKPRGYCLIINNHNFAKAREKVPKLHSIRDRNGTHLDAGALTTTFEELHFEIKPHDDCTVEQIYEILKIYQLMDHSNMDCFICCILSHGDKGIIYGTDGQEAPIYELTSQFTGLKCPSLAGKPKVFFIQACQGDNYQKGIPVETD
Chain of MCH-5 (Q14790 385-479 limits assumed, species assumed): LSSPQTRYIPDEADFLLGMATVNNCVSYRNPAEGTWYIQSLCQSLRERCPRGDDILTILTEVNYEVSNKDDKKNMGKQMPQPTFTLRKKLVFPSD

With `CC(C)C[C@H](NC(=O)COc1ccccc1-c1ccccc1)C(=O)N[C@@H](CC(=O)O)C(=O)COc1c(F)cc(F)cc1F` [Example 163], on CPP32, the “CPP32 k3/Ki” value is 308,000 M^−1s^−1 and the Ki was 23 nM. Further, on MCH-2, the Ki was found to be 12 nM and the “MCH-2 k3/Ki” value is 110,000 M^−1s^−1. For the same compound, at MCH-5, the Ki was found to be 252 nM and the “MCH-5 k3/Ki” value is given as 7,960 M^−1s^−1. In addition, on mICE, the Ki turned out to be 415 nM and the “mICE k3/Ki” value is given as 37,800 M^−1s^−1.

Consider `CC(C)[C@H](NC(=O)CCOc1cccc2ccccc12)C(=O)N[C@@H](CC(=O)O)C(=O)COC(=O)c1c(Cl)cccc1Cl` [Example 158], for which, at CPP32, the “CPP32 k3/Ki” value is 98,200 M^−1s^−1 and the Ki was found to be 109 nM. At MCH-2, the Ki was determined as 22 nM and the “MCH-2 k3/Ki” value is 103,000 M^−1s^−1. At MCH-5, the Ki came to 264 nM and the “MCH-5 k3/Ki” value was 1,610 M^−1s^−1. Further, on mICE, the Ki came out at 168 nM and the “mICE k3/Ki” value is reported as 34,300 M^−1s^−1.

As for `CC(C)[C@H](NC(=O)COc1cccc2ccccc12)C(=O)N[C@@H](CC(=O)O)C(=O)COn1nnc2ccccc2c1=O` [Example 62, (3S)-3-[N-((1-Naphthyloxy)Acetyl)Valinyl]Amino-5-(1′,2′,3′-Benzotriazin-4′(3H)-on-3′-yloxy)-4-Oxopentanoic Acid], on CPP32, the “CPP32 k3/Ki” value was 169,000 M^−1s^−1 and the Ki is 52 nM. In addition, at MCH-2, the Ki amounted to 42 nM and the “MCH-2 k3/Ki” value is recorded as 44,000 M^−1s^−1. In addition, on MCH-5, the Ki came to 48 nM and the “MCH-5 k3/Ki” value is 18,200 M^−1s^−1. In addition, on mICE, the Ki was found to be 253 nM and the “mICE k3/Ki” value was 45,400 M^−1s^−1.

For the compound `CC(C)[C@H](NC(=O)COc1cccc2ccccc12)C(=O)N[C@@H](CC(=O)O)C(=O)COc1ccc(F)cc1F` [Example 69], at CPP32, the “CPP32 k3/Ki” value was 21,700 M^−1s^−1 and the Ki came out at 92 nM. Further, at MCH-2, the Ki was 951 nM and the “MCH-2 k3/Ki” value came to 0 M⁻¹ s⁻¹. In addition, at MCH-5, the Ki was 1300 nM and the “MCH-5 k3/Ki” value was found to be 630 M⁻¹ s⁻¹. In addition, on mICE, the Ki worked out at 615 nM and the “mICE k3/Ki” value is 8,400 M^−1s^−1.

Consider `CC(C)[C@H](NC(=O)COc1cccc2ccccc12)C(=O)N[C@@H](CC(=O)O)C(=O)COP(C)(=O)c1ccccc1` (stereo partly shown) [Example 104], for which, on CPP32, the “CPP32 k3/Ki” value is 151,000 M^−1s^−1 and the Ki was 54 nM. At MCH-2, the Ki amounted to 37 nM and the “MCH-2 k3/Ki” value was 50,200 M^−1s^−1. Further, at MCH-5, the Ki amounted to 59 nM and the “MCH-5 k3/Ki” value is 15,500 M^−1s^−1. Moreover, at mICE, the Ki is 133 nM and the “mICE k3/Ki” value was 50,600 M^−1s^−1.

For the compound `CC(C)[C@H](NC(=O)COc1cccc2ccccc12)C(=O)NC(CC(=O)O)C(=O)CF` (mixture of isomers) [Example 53, (3RS)-3-[N-((1-Naphthyloxy)Acetyl)Valinyl]Amino-5-Fluoro-4-Oxopentanoic Acid], at CPP32, the “CPP32 k3/Ki” value is given as 207,000 M^−1s^−1 and the Ki worked out at 79 nM. Also, at MCH-2, the Ki was 38 nM and the “MCH-2 k3/Ki” value is 36,800 M^−1s^−1. Besides, at MCH-5, the Ki is 40 nM and the “MCH-5 k3/Ki” value is 71,700 M^−1s^−1. Also, at mICE, the Ki turned out to be 53 nM and the “mICE k3/Ki” value is 129,000 M^−1s^−1.

Regarding `CC(C)[C@H](NC(=O)COc1ccc2ccccc2c1)C(=O)N[C@@H](CC(=O)O)C(=O)COc1c(F)c(F)cc(F)c1F` [Example 157], at CPP32, the “CPP32 k3/Ki” value is reported as 53,300 M^−1s^−1 and the Ki came out at 257 nM. Besides, at MCH-2, the Ki came out at 22 nM and the “MCH-2 k3/Ki” value is listed as 72,000 M^−1s^−1. For the same compound, on MCH-5, the Ki was 72 nM and the “MCH-5 k3/Ki” value was 11,600 M^−1s^−1. Further, on mICE, the Ki was 225 nM and the “mICE k3/Ki” value is 39,300 M^−1s^−1.

Regarding `CC(C)[C@H](NC(=O)COc1cccc2ccccc12)C(=O)N[C@@H](CC(=O)O)C(=O)COP(C)(=O)c1cccc2ccccc12` (stereo partly shown) [Example 110], at CPP32, the “CPP32 k3/Ki” value is recorded as 272,000 M^−1s^−1 and the Ki is 35 nM. Moreover, at MCH-2, the Ki was determined as 15 nM and the “MCH-2 k3/Ki” value was 150,000 M^−1s^−1. At MCH-5, the Ki amounted to 43 nM and the “MCH-5 k3/Ki” value is 18,800 M^−1s^−1. Besides, on mICE, the Ki came out at 59 nM and the “mICE k3/Ki” value is reported as 64,900 M^−1s^−1.

Regarding `CC(C)C(NC(=O)COc1ccccc1-c1ccccc1)C(=O)NC(CC(=O)O)C(=O)CF` (stereo not shown) [Example 56], at CPP32, the “CPP32 k3/Ki” value was 105,000 M^−1s^−1 and the Ki was determined as 138 nM. Besides, at MCH-2, the Ki turned out to be 53 nM and the “MCH-2 k3/Ki” value is reported as 50,000 M^−1s^−1. On MCH-5, the Ki was determined as 85 nM and the “MCH-5 k3/Ki” value is 12,800 M^−1s^−1. At mICE, the Ki was found to be 324 nM and the “mICE k3/Ki” value is reported as 15,400 M^−1s^−1.

On to `C[C@H](NC(=O)COc1ccc2ccccc2c1)C(=O)NC(CC(=O)O)C(=O)COc1c(F)c(F)cc(F)c1F` (stereo partly shown) [Example 176], for which, at CPP32, the “CPP32 k3/Ki” value is given as 4,330 M^−1s^−1 and the Ki stood at 3080 nM. For the same compound, on MCH-2, the Ki is 1260 nM and the “MCH-2 k3/Ki” value is 1,330 M^−1s^−1. Also, on MCH-5, the Ki came out at 1160 nM and the “MCH-5 k3/Ki” value stood at 684 M⁻¹ s⁻¹. Further, on mICE, the Ki is 480 nM and the “mICE k3/Ki” value is on record as 11,100 M^−1s^−1.

In the case of `COC(=O)c1cc(OCC(=O)[C@H](CC(=O)O)NC(=O)[C@@H](NC(=O)COc2cccc3ccccc23)C(C)C)no1` [Example 144], on CPP32, the “CPP32 k3/Ki” value is 144,000 M^−1s^−1 and the Ki was 54 nM. In addition, on MCH-2, the Ki is 70 nM and the “MCH-2 k3/Ki” value is recorded as 5,800 M^−1s^−1. On MCH-5, the Ki was 155 nM and the “MCH-5 k3/Ki” value is reported as 6,340 M^−1s^−1. In addition, at mICE, the Ki worked out at 126 nM and the “mICE k3/Ki” value is 42,500 M^−1s^−1.

Take `CC(C)[C@H](NC(=O)COc1ccc2ccccc2c1)C(=O)N[C@@H](CC(=O)O)C(=O)COC(=O)c1c(Cl)cccc1Cl` [Example 155]: at CPP32, the “CPP32 k3/Ki” value is 206,000 M^−1s^−1 and the Ki was determined as 47 nM. Also, on MCH-2, the Ki came to 15 nM and the “MCH-2 k3/Ki” value is listed as 166,000 M^−1s^−1. Besides, on MCH-5, the Ki is 136 nM and the “MCH-5 k3/Ki” value is 7,910 M^−1s^−1. Besides, on mICE, the Ki came out at 168 nM and the “mICE k3/Ki” value was 59,800 M^−1s^−1.

For `CC(C)[C@H](NC(=O)COc1cccc2ccccc12)C(=O)N[C@@H](CC(=O)O)C(=O)COc1c(F)cc(F)cc1F` [Example 78], on CPP32, the “CPP32 k3/Ki” value was 114,000 M^−1s^−1 and the Ki is 38 nM. Moreover, on MCH-2, the Ki was found to be 81 nM and the “MCH-2 k3/Ki” value is on record as 5,140 M^−1s^−1. On MCH-5, the Ki turned out to be 202 nM and the “MCH-5 k3/Ki” value is recorded as 9,080 M^−1s^−1. Also, on mICE, the Ki came out at 137 nM and the “mICE k3/Ki” value was 20,700 M^−1s^−1.

`CC(C)[C@H](NC(=O)COc1ccc2ccccc2c1)C(=O)NC(CC(=O)O)C(=O)CF` (mixture of isomers) [Example 54]: on CPP32, the “CPP32 k3/Ki” value is reported as 59,300 M^−1s^−1 and the Ki amounted to 209 nM. Besides, on MCH-2, the Ki came out at 57 nM and the “MCH-2 k3/Ki” value was 64,400 M^−1s^−1. Also, on MCH-5, the Ki was determined as 59 nM and the “MCH-5 k3/Ki” value was 32,300 M^−1s^−1. Besides, at mICE, the Ki was 1090 nM and the “mICE k3/Ki” value is reported as 8,280 M^−1s^−1.
